Laboratory results reported in patent US11267786B2, “[3.3.1] bicyclo compounds as indoleamine 2,3-dioxygenase inhibitors” (Merck Sharp & Dohme Corp., priority 2018, dated 2022).

Biological target: T1, IDO1 (Homo sapiens, UniProt P14902)
Test: IDO1 Cellular Assay in Hela Cells Stimulated with IFNγ
Format: cell-based
Details: 100 ng/mL IFNγ, 300 uM L-tryptophan, about 48 hours, fluorescence readout
Procedure: IDO1 Cellular Assay in Hela Cells Stimulated with IFNγ
Hela cells were cultured in complete Hela culture medium (90% EMEM, 10% heat-inactivated fetal bovine serum) and expanded to about 1×10^9 cells. The cells were then collected and frozen down at 1×10^7 cells/vial in 1 mL frozen medium (90% complete Hela culture medium, 10% DMSO)
Compounds to be tested were serially diluted in ten 3-fold steps in DMSO starting from 10 mM DMSO stocks in Echo low volume plate(s). Compound dilutions or DMSO alone were then dispensed from the dilution plate(s) into Greiner black 384-well assay plate(s) (catalog #781086, 50 nL/well) using an Echo 550 acoustic liquid handler (Labcyte).
Frozen Hela cells were thawed and transferred into Hela assay medium (99% complete Hela culture medium, 1% Pen/Strep) with 20 mL medium/vial of cells. The cells were spun down at 250 g in a table top centrifuge for 5 min and suspended in same volume of Hela assay medium. The cells were then counted and adjusted to a density of 2×10^5 cells/ml in Hela assay medium. Sterile L-tryptophan were added to the cells with final concentration of 300 uM L-tryptophan. A small aliquot (2 mL/plate) of Hela cells were set aside and were not treated with IFNγ, to serve as the Max-E control.
Hela cells with and without IFNγ were dispensed to the respective wells of 384-well assay plates containing the compounds. The plates were incubated for about 48 hours at a 37° C., 5% CO2 incubator. Afterwards, 12 μL of 0.5 M methyl isonipecotate in dimethyl sulfoxide were added into each well and the plates were sealed and incubated at 37° C. without CO2 overnight. The plates were centrifuged for 1 min at 200×g. The resulting fluorescence was measured in a Spectramax plate reader (Molecular Devices) with a 400 nm excitation filter and a 510 nm emission filter.
The fluorescence intensity of each well was corrected for the background observed in wells with non-IFNγ-treated cells and was expressed as a fraction of the intensity observed in wells of IFNγ-treated cells and DMSO only. Potencies were calculated by linear least squares fit to the four parameter logistic IC50 equation.

T1 sequence (P14902 whole entry): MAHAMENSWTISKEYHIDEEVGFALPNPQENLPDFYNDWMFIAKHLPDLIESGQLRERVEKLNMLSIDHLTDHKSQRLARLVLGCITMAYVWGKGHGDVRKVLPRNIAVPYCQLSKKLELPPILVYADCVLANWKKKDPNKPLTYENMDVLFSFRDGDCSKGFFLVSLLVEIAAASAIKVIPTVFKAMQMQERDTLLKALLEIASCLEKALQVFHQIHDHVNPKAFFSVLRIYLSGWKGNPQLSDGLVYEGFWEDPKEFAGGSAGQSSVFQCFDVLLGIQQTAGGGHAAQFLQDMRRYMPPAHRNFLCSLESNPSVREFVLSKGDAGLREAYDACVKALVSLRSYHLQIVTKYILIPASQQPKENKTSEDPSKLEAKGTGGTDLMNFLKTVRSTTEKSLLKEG

| Compound | IC50 [µM] |
| --- | --- |
| O=C(Nc1ccc(Cl)cc1)C1CCC2CC1CCC2c1ccnc2ccc(F)cc12 (single isomer, unassigned) [Example 2, N-(4-chlorophenyl)-6-(6-fluoroquinolin-4-yl)bicyclo[3.3.1]nonane-2-carboxamide] | 0.26 |
| O=C(NC1CCC2CC1CCC2c1ccnc2ccc(F)cc12)c1ccc(Cl)cc1 (single isomer, unassigned) [Example 7, 4-Chloro-N-(6-(6-fluoroquinolin-4-yl)bicyclo[3.3.1]nonan-2-yl)benzamide] | 0.025 |
| O=C(Nc1ccc(Cl)cc1)C1CCC2CC1CCC2c1ccnc2ccc(F)cc12 (single isomer, unassigned) [Example 1, N-(4-chlorophenyl)-6-(6-fluoroquinolin-4-yl)bicyclo[3.3.1]nonane-2-carboxamide] | 0.002 |
| O=C(Nc1ccc(Cl)cc1)C1CCC2CC1CCC2c1ccnc2ccc(F)cc12 (single isomer, unassigned) [Example 4, N-(4-chlorophenyl)-6-(6-fluoroquinolin-4-yl)bicyclo[3.3.1]nonane-2-carboxamide] | 2.51 |
| O=C(NC1CCC2CC1CCC2c1ccnc2ccc(F)cc12)c1ccc(Cl)cc1 (single isomer, unassigned) [Example 8, 4-Chloro-N-(6-(6-fluoroquinolin-4-yl)bicyclo[3.3.1]nonan-2-yl)benzamide] | 2.5 |
| O=C(NC1CCC2CC1CCC2c1ccnc2ccc(F)cc12)c1ccc(Cl)cc1 (single isomer, unassigned) [Example 5, 4-Chloro-N-(6-(6-fluoroquinolin-4-yl)bicyclo[3.3.1]nonan-2-yl)benzamide] | 0.77 |
| O=C(Nc1ccc(Cl)cc1)C1CCC2CC1CCC2c1ccnc2ccc(F)cc12 (single isomer, unassigned) [Example 3, N-(4-chlorophenyl)-6-(6-fluoroquinolin-4-yl)bicyclo[3.3.1]nonane-2-carboxamide] | 0.127 |
| O=C(NC1CCC2CC1CCC2c1ccnc2ccc(F)cc12)c1ccc(Cl)cc1 (single isomer, unassigned) [Example 6, 4-Chloro-N-(6-(6-fluoroquinolin-4-yl)bicyclo[3.3.1]nonan-2-yl)benzamide] | 1.64 |

Biological target: T1, IDO1
Test: IDO1 Human Whole Blood Assay
Format: cell-based
Parameters: Human whole blood was drawn in sodium heparin coated tubes from healthy internal donors; from tissue; host or cells: human whole blood from healthy donors, stimulated with LPS and IFNγ
Details: human whole blood stimulated with LPS and IFNγ 100 ng/mL, 18 h, kynurenine by LC/MS/MS
Procedure: IDO1 Human Whole Blood Assay
Compounds to be tested were serially diluted in ten 3-fold steps in DMSO starting from 10 mM. 3 μL of compound dilutions or DMSO alone were then dispensed from the dilution plate into a polypropylene 96-well assay plate containing 97 μL of RPMI medium using an Echo 555 acoustic liquid handler (Labcyte). LPS and IFNγ were prepared in RPMI medium to a 10× of final conc. (1000 ng/mL), final concentration is 100 ng/mL.
Human whole blood was drawn in sodium heparin coated tubes from healthy internal donors. Two hundred forty μL of blood was transferred to each of the wells of a v-bottom 96 well plate. Thirty μL of compound was transferred from intermediate dilution plate, and incubated for 15 min. Thirty μL from stimulants was then transferred to blood and mixed thoroughly. Plate was covered with breathable membrane and incubated at 37° C. for overnight (18 h).
On day 2 isotope labeled standard of kynurenine and tryptophan was made in water at 10× concentration and 30 μL was added to the blood at 3 μM final concentration. […] Twenty μL of supernatant was carefully transferred to a 384 well plate containing 40 μL of 0.1% formic acid in water and analyzed by LC/MS/MS.
LC/MS/MS analyses were performed using Thermo Fisher's LX4-TSQ Quantum Ultra system. […] Compounds were titrated and IC50's were calculated by 4 parameter sigmoidal curve fitting formula.

| Compound | IC50 [µM] |
| --- | --- |
| O=C(Nc1ccc(Cl)cc1)C1CCC2CC1CCC2c1ccnc2ccc(F)cc12 (single isomer, unassigned) [Example 1, N-(4-chlorophenyl)-6-(6-fluoroquinolin-4-yl)bicyclo[3.3.1]nonane-2-carboxamide] | 0.306 |
